Reference: ChEMBL document CHEMBL5308504, “Tm Shift (DSF) assay results for EUbOPEN Chemogenomics Library” (2023)

What was measured:
[1] = biological target: Fibroblast growth factor receptor 3 (Homo sapiens) (UniProt P22607); conditions: Compound concentration 20.0 uM, Protein concentration 2.0 uM, Result type QC Liability
Description: Thermal Shift Assay. Domain: start/stop: P449-E759

Peregrin (Homo sapiens) = biological target: T1, Peregrin (Homo sapiens) (UniProt P55201); conditions: Compound concentration 20.0 uM, Protein concentration 2.0 uM, Result type QC Liability
T1 sequence (whole entry): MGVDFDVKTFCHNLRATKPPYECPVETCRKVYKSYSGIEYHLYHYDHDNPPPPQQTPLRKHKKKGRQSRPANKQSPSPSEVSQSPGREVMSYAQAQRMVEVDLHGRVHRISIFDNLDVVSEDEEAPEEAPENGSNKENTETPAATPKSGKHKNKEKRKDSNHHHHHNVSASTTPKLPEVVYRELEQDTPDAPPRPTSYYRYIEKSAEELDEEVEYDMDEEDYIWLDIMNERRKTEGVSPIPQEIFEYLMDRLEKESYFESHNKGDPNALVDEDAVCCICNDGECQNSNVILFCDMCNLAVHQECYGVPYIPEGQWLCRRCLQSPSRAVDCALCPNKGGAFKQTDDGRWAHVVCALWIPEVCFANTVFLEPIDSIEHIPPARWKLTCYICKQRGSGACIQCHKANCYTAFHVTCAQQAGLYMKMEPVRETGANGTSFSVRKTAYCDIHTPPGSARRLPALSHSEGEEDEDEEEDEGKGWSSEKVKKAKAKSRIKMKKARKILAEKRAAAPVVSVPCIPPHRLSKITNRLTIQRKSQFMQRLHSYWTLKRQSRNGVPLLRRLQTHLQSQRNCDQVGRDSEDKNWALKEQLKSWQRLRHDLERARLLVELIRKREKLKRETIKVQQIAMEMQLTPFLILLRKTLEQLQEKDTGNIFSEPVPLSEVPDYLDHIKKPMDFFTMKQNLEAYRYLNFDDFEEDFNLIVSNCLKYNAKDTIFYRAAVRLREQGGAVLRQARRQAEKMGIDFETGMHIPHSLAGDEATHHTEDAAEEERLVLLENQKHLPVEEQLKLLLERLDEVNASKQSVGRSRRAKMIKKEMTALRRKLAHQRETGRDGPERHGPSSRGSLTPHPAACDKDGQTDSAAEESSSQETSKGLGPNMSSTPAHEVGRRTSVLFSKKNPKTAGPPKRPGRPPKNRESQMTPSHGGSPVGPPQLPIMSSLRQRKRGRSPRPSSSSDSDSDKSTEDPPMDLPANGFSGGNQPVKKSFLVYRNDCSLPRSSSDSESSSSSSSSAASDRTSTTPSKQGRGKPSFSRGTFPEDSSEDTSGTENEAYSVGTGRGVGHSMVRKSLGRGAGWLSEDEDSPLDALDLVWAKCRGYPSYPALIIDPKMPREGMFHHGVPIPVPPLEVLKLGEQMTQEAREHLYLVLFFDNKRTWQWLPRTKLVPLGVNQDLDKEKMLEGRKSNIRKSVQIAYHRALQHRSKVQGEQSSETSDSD

Sequence of Fibroblast growth factor receptor 3 (Homo sapiens) (P22607 23-806 limits assumed): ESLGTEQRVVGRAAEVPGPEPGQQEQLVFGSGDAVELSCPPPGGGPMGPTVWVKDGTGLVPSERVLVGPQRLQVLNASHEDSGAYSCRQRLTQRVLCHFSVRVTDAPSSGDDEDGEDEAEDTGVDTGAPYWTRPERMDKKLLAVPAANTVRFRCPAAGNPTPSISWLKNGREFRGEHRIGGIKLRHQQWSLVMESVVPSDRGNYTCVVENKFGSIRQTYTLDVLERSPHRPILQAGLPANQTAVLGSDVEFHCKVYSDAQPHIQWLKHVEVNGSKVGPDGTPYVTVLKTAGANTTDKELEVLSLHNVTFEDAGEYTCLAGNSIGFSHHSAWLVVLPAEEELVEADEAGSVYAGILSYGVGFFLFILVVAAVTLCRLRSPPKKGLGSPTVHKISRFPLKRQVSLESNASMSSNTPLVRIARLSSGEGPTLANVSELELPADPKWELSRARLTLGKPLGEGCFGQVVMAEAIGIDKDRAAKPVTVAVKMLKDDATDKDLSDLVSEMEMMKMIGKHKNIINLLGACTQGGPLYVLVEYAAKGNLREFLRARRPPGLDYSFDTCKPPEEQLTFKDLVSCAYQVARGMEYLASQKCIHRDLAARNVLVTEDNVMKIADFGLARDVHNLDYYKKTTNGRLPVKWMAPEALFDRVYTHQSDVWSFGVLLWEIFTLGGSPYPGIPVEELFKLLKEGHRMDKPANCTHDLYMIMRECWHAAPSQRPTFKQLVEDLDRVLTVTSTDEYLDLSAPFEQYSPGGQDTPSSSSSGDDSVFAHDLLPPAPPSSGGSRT

| ΔTm [1] | ΔTm (Peregrin (Homo sapiens)) | Compound |
| --- | --- | --- |
| 0.96 °C | -2.47 °C | Cc1nc2ccc(Oc3ccc(F)cc3)cc2c(=O)n1C[C@H]1CCCN(C(C)C)C1 |
| 4.32 °C | -0.11 °C | NC(=O)c1ccccc1Nc1nc(-c2ccc(N3CCOCC3)cc2)cc2ncccc12 |
| 0.57 °C | -2.36 °C | Nc1c(CC(=O)O)cccc1C(=O)c1ccc(Br)cc1 |
| 0.59 °C | -1.83 °C | CCN1C(=O)c2cc(C)ccc2N(C)c2ncccc21 |
| 2.76 °C | -2.35 °C | C[C@@H]1CCNC(=O)c2cc3ccc(C(=O)Nc4nc5ccccc5n4CCCN(C)C)cc3n21 |
| 1.01 °C | -0.92 °C | COc1ccc(F)c(F)c1C(=O)c1cnc(NC2CCN(S(C)(=O)=O)CC2)nc1N |
| 0.46 °C | 0.07 °C | O=C(CNCc1cc2ccccc2[nH]1)N[C@H]1CC[C@@H](c2nc3ccccc3[nH]2)CC1 |
| 1.09 °C | -1.51 °C | N#CN1CC[C@H](C(=O)Nc2nc3c(s2)CN(C(=O)CN=[N+]=[N-])CC3)C1 |
| 4.63 °C | -1.78 °C | O=C1CCCN1CCNc1nc(Nc2ccc(Cl)c(Cl)c2)ncc1C(F)(F)F |
| 1.13 °C | -1.89 °C | CCN1C(=O)/C(=C(\NC2CCN(C)CC2)c2ccc3c(c2)OCO3)c2cc(C(C)=O)ccc21 |
| 0.56 °C | -0.92 °C | CCN(C(=O)c1cc(F)ccc1Oc1cncnc1N1CC2(CCN(C[C@H]3CC[C@H](NS(=O)(=O)CC)CC3)CC2)C1)C(C)C |
| 1.06 °C | 0.01 °C | CCCS(=O)(=O)Nc1ccc(F)c(Nc2ncnc3cnc(-n4cnc(C)c4)nc23)c1F |
| 1.41 °C | -2.59 °C | C=CC1C[C@]1(NC(=O)[C@@H]1C[C@@H](Oc2cc(-c3csc(NC(=O)C(C)C)n3)nc3c(Br)c(OC)ccc23)CN1C(=O)[C@@H](NC(=O)OC1CCCC1)C(C)(C)C)C(=O)O (stereo partly drawn) |
| 0.53 °C | -4.35 °C | Cc1cc2ncnn2cc1Nc1ncc2c(n1)n(C1CCOCC1)c(=O)n2C |
| 0.39 °C | -1.44 °C | CC(=O)c1ccc2c(c1)/C(=C(/NC1CCN(C)CC1)c1ccc3c(c1)OCO3)C(=O)N2 |
| 1.03 °C | -2.12 °C | Cn1c(C2(NC(=O)c3ccc(NCC4CCCCC4)nc3)CCC2)nc2ccc(/C=C/C(=O)O)cc21 |
| 0.47 °C | -1.27 °C | Cc1ccc(NC(=O)c2ccc3c(c2)OCCO3)cc1NC(=O)c1ccc2nc(OCCN3CCCC3)ccc2c1 |
| 0.45 °C | -1.57 °C | COc1ccccc1[C@@H]1CNCCC12CCN(C(=O)[C@](OC)(c1ccccc1)C(F)(F)F)CC2 |
| 0.35 °C | -2.07 °C | CCOC(=O)N1CCC(CN(Cc2ccc(Cl)cc2)Cc2ccc([N+](=O)[O-])s2)C1 (stereo not drawn) |
| -7.8 °C | -1.83 °C | COc1ccc(CSc2nnc(-c3ccc4ncsc4c3)o2)cc1C(F)(F)F |

| ΔTm [1] | ΔTm (Peregrin (Homo sapiens)) | Compound |
| --- | --- | --- |
| 0.46 °C | -2.51 °C | CN1CCN(C(=O)c2ccc(N(C)c3ncc(C(F)(F)F)c(N[C@@H]4CCC[C@@H]4C(N)=O)n3)cc2)CC1 |
| 0.5 °C | -1.87 °C | CCn1c(CNC(=O)c2nc(Cl)cnc2N)[n+](CC)c2ccc(C(=O)N(C)CCN(C)C)cc21 |
| 0.68 °C | -1.94 °C | CN(C)C(=O)c1cc2cnc(Nc3ccc(N4CCN(CCCCNC(=O)COc5cccc6c5C(=O)N(C5CCC(=O)NC5=O)C6=O)CC4)cn3)nc2n1C1CCCC1 (stereo not drawn) |
| 0.54 °C | -0.76 °C | Fc1ccc(Cl)cc1-c1nc(Nc2ccncc2)c2nccnc2n1 |
| 1.19 °C | 0.17 °C | Fc1ccc(-c2nc(-c3ccc4ccccc4c3F)[nH]c2-c2ccncc2)cc1 |
| -2.23 °C | 1.18 °C | Cc1ncsc1-c1ccc(CNC(=O)[C@@H]2C[C@@H](O)CN2C(=O)[C@@H](NC(=O)CCCCNC(=O)c2ccc(-c3ccc(N4CCN(C)CC4)c(NC(=O)c4c[nH]c(=O)cc4C(F)(F)F)c3)cc2)C(C)(C)C)cc1 |
| 0.45 °C | -2.93 °C | C[C@@H]1CN(CC(=O)N2CC(C)(C)c3nc(CO)c(Cc4ccc(F)cc4)cc32)[C@@H](CN2CCOC[C@H]2C)CN1 |
| 2.41 °C | 1.59 °C | COc1ccc(C(F)(F)F)cc1NC(=O)Nc1ccc(Oc2cc(C)nc(N)n2)c2ccccc12 |
| 6.9 °C | 0.03 °C | CN(C)C/C=C/C(=O)Nc1ccc(C(=O)Nc2cccc(Nc3ncc(Cl)c(-c4c[nH]c5ccccc45)n3)c2)cc1 |
| 0.85 °C | -1.61 °C | Cn1cnc(Cn2ccc3ccc(CNCc4[nH]c5ccccc5c4[C@@H]4NC(=O)c5ccc(O)cc54)cc32)c1 |
| -5.02 °C | -6.79 °C | CC(C)(c1ccc(OCc2cccc(COc3ccc(C(=N)N)cc3)c2)cc1)c1ccc(O[C@@H]2O[C@H](C(=O)O)[C@@H](O)[C@H](O)[C@H]2O)cc1 |
| 0.73 °C | 0.36 °C | CN1C(=O)Cc2ccc(-c3ccc(C[C@@H](C#N)NC(=O)[C@H]4N[C@@H]5CC[C@H]4C5)c(F)c3)cc21 |
| 0.87 °C | -1.59 °C | CCCCCCCN(CCc1ccc(SC(C)(C)C(=O)O)cc1)C(=O)Nc1ccc(F)cc1F |
| 0.71 °C | -1.41 °C | Cc1nc(-c2ccc(C(F)(F)F)cc2)sc1C(=O)NCc1ccc(OC(C)(C)C(=O)O)cc1 |
| 0.45 °C | 0.2 °C | O=C(Nc1snnc1C(=O)Nc1ccc(N2CCCC2)cc1)c1cncc(C(F)(F)F)c1 |
| 0.64 °C | -1.51 °C | COc1cc(-c2cncc(-c3ccc(N4CCN(C(C)C)CC4)cc3)c2C)cc(F)c1C(N)=O |
| 3.43 °C | 0.48 °C | N#CC[C@H](C1CCCC1)n1cc(-c2ncnc3[nH]ccc23)cn1 |
| 0.48 °C | -1.53 °C | C[C@@H]1OCC2(CCN(c3cnc(Sc4ccnc(N)c4Cl)c(N)n3)CC2)[C@@H]1N |
| 1.71 °C | -2.32 °C | COc1cc(-c2cc([C@H](O)C3CC3)n3ncnc(N)c23)ccc1CO |
| 1.04 °C | -1.22 °C | Cc1cc(NC(=O)c2cccc(NC(=O)/C=C/CN(C)C)c2)ccc1Nc1nccc(-c2cccnc2)n1 |

| ΔTm [1] | ΔTm (Peregrin (Homo sapiens)) | Compound |
| --- | --- | --- |
| 0.9 °C | -1.95 °C | Cn1nc(C(=O)NCc2ccc(C(=O)O)cc2)cc1-c1ccc2[nH]ccc2c1 |
| 0.56 °C | -1.78 °C | Oc1c(-c2cccnc2)cnn1-c1ccccn1 |
| 0.73 °C | 0.02 °C | CCNC1=N[C@@H]2[C@@H](O)[C@H](O)[C@@H](CO)O[C@@H]2S1 |
| 0.37 °C | -2.18 °C | CCCN1CCC(C#N)(NC(=O)[C@H](CC(C)(C)C)NC(=O)N2CCOCC2)CC1 |
| 0.63 °C | -0.9 °C | CC(=O)Nc1nc(C)c(S(=O)(=O)Nc2ccc(C(O)(C(F)(F)F)C(F)(F)F)cc2)s1 |
| 1.07 °C [middle of 4 runs] | -1.17 °C [middle of 4 runs] | COc1ccc2c(O[C@@H]3C[C@H]4C(=O)N[C@]5(C(=O)O)CC5/C=C\CCCCC[C@H](NC(=O)OC5CCCC5)C(=O)N4C3)cc(-c3csc(NC(=O)C(C)C)n3)nc2c1C (stereo partly drawn) |
| 0.55 °C | -0.92 °C | Clc1ccc(-c2nc3sccn3c2/C=N/OCc2ccc(Cl)c(Cl)c2)cc1 |
| 1.37 °C | 0.84 °C | NC(=O)c1ccc(-c2nc(-c3ccc4c(c3)OCCO4)c(-c3ccccn3)[nH]2)cc1 |
| 0.75 °C | -1.87 °C | CN[C@@H](C)C(=O)N[C@H](C(=O)N1CCC[C@H]1C(=O)N[C@@H]1CCCc2ccccc21)C1CCCCC1 |
| 6.58 °C | -0.9 °C | CN1C(=O)c2ccccc2N(C)c2nc(Nc3cnn(C4CCNCC4)c3)ncc21 |
| 0.65 °C | -0.45 °C | O=c1[nH]c(CS[C@H]2CC[C@H](O)CC2)nc2cc(OCC3CC3)cc(F)c12 |
| 0.41 °C | -2.24 °C | CCCCC[C@H](O)/C=C/[C@H]1[C@H](O)CC(=O)[C@@H]1CCCCCCC(=O)O |
| 0.52 °C | -1.78 °C | CCn1c(CNC(=O)c2ncc(C)nc2N)[n+](CC)c2ccc(C(=O)N(C)CCN(C)C)cc21 |
| 1.5 °C | -1.29 °C | CC1(C)Cc2nc(C3CCCC3)c([C@@H](F)c3ccc(C(F)(F)F)cc3)c(C3CCCCC3)c2[C@@H](O)C1 |
| 0.59 °C | -1.12 °C | CN1CCN(c2ccnc(NCCc3ccccc3)n2)CC1 |
| 0.84 °C | 0.44 °C | COc1cc(-c2cn(C)c(=O)c3cnccc23)c(OC)cc1CN(C)C |
| 0.5 °C | -0.45 °C | COc1cc(C(=O)O)ncc1C#Cc1ccccc1NS(=O)(=O)c1cccc2c(N(C)C)ccnc12 |
| 0.75 °C | -1.74 °C | O=C(O)c1ccc2c(c1)nc(NCc1ccccc1)c1ncncc12 |

| Compound | ΔTm [1] | ΔTm (Peregrin (Homo sapiens)) |
| --- | --- | --- |
| CCOP(=O)(OCC)C(=Cc1cc(C(C)(C)C)c(O)c(C(C)(C)C)c1)P(=O)(OCC)OCC | 0.83 °C | -1.65 °C |
